According to patent US12433876B2, “Septin inhibitors for treatment of cancers” (UNIVERSITY OF ROCHESTER, priority 2019, dated 2025):

What was measured:
Assay type in all cases: cell-based
septin-7 = target: T1, septin-7 (Homo sapiens, UniProt Q16181); assay: Confocal analysis of septin-7; settings: PANC-1 cells
T1 construct: investigate the response of other septin family members in PANC-1 cells upon treatment with UR214-9; endogenous in cells; host or cells: PANC-1, JIMT-1, SKOV-3 (confocal); PANC-1 (immunoblot)

JIMT-1 cells = assay: Cell cycle analysis (PI, flow cytometry), JIMT-1; settings: JIMT-1, 3 μM
Procedure: For cell cycle analysis, BXPC-3 and PANC-1 and JIMT-1 cells (100,000/well) were seeded overnight in a 6 well dishes and allowed to adhere overnight. Media was replaced with fresh complete medium supplemented with DMSO or UR214-9 (100 nM and 3 μM) and cells were incubated for 72 hours. The media containing the drugs was removed and cells were washed twice with PBS and trypsinized gently. The cells were collected in 15 mL tubes, complete DMEM media was added to block trypsin and cells were centrifuged. The supernatants were removed and cells were gently treated with 70% cold-EtOH for 30 minutes. The fixed cells were centrifuged and the pellets obtained were collected in flow cytometry tubes and stained with preformulated PI/RNase solution (Cell Signaling Technology, catalog number: 4087s) for 30 minutes. The PI content was analyzed using a flow cytometer. Data was processed using Flowjo software.

actin = assay: Confocal analysis of actin filaments (Phalloidin-TRITC); settings: PANC-1 and JIMT1 cells, for 48 hours
[1] = tested on: human pancreatic cancer cells (BXPC-3 and PANC-1); assay: MTS cell viability, pancreatic cancer cells
Procedure: Cell Lines, Cell Culture, and Reagents. PANC-1, BXPC-3 and CAPAN-1, SKOV-3, MCF7, MDA-MD-231 cells were obtained from ATCC and maintained in DMEM, RPMI-1640 and IMDM supplemented with 10% fetal calf serum penicillin (100 units/mL), and streptomycin (100 μg/mL) at 37° C. with 5% CO2 in a humidified incubator. JIMT-1 cells were purchased from AddexBio Inc, USA (catalog number: C0006005) and maintained in 10% FBS and antibiotic supplemented DMEM. […] The reaction was monitored using thin-layer chromatography plates with DCM-MeOH or pure ethyl acetate as eluent. Spots were monitored in a UV chamber. […] ICM scores for each compound and their poses were calculated and compared with FCF. […] Cell viability of PANC-1, BXPC-3 and CAPAN-1 pancreatic cancer cells treated with UR214-9 was measured using the Cell Titre96R Aqueous One Solution Cell Proliferation Assay (Promega Corp., catalog number: G3580) following the procedure published earlier. […] The cells were analyzed by a 305 flow cytometer and relative live and dead cell population was calculated by inputting equal number of cells in both vehicle and control group.

T1 sequence (Q16181 whole entry): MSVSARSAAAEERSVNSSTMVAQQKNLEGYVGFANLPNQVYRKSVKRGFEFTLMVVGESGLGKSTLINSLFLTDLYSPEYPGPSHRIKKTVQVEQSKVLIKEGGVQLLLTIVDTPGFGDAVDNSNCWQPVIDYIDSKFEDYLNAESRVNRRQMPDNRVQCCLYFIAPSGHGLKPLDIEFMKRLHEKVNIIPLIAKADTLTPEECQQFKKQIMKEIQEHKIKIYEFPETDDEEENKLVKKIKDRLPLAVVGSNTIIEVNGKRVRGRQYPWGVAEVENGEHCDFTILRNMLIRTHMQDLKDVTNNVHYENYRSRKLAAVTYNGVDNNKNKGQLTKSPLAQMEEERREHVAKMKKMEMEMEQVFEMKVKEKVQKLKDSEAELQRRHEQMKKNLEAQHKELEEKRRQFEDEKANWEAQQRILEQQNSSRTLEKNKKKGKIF

**Q.** How did the “septin-7 (confocal)” value (septin-7) turn out when O=C(Nc1cc(Cl)nc(Cl)c1)Nc1cccc(SC(F)(F)F)c1F [UR214-9] was run?
**A.** reduced expression

**Q.** And the cell cycle distribution (JIMT-1 cells)?
**A.** G1 phase arrest

**Q.** And the actin filaments (actin)?
**A.** actin filament disruption

**Q.** What about the viability ([1]; BXPC-3 and PANC-1, 72 hours of treatment) of the same compound?
**A.** reduced the viability

**Q.** What about the “growth (MTS assay), dose dependently” value ([1]; BXPC-3 and PANC-1, by 48th hour of drug exposure) of the same compound?
**A.** reduced the growth
